Like-named read-outs stand apart in the source and are kept apart here.
How the values were obtained:
[1] = target: T1, F508del in NIH 3T3 cells (Homo sapiens, UniProt P13569, DEL508-508); assay: 3T3 assay: membrane potential optical assay for F508del correction; type: cell-based, mouse; conditions: for EC50: compound incubation 18-24 hours at 37° C., forskolin activation; for Emax: NIH3T3, F508del NIH 3T3 cells, read-out: 3T3 Max Activity (%)
T1 construct: expressed in transfected cells
Procedure, shortened: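 NIH3T3 mouse fibroblasts stably expressing F508del incubated with corrector compounds at a range of concentrations for 16-24 h at 37 °C, then loaded with voltage-sensing redistribution dye. Single addition of forskolin with Cl− gradient (chloride-free gluconate bath vs. NaCl bath, pH 7.4); membrane potential change read by fluorescence on FLIPR.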

[2] = target: CFTR-mediated chloride transport in human intestinal epithelial enteroid cells (Homo sapiens, UniProt P13569); assay: Membrane potential dye, Enteroid Assay A; type: cell-based; conditions: for Ent. A Max Activity (%): % of chloride transport of triple combination control (3 μM N-[(6-amino-2-pyridyl)sulfonyl]-6-(3-fluoro-5-isobutoxy-phenyl)-2-[(4S)-2,2,4-trimethylpyrrolidin-1-yl]pyridine-3-carboxamide, 3 μM tezacaftor, 300 nM acute ivacaftor); for EC50: enteroid cells, 18-24 hours incubation, acute 10 μM forskolin and 300 nM ivacaftor, read-out: Ent. A EC50
Procedure, shortened: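 Enteroids seeded at 5000 cells/well were exposed to test compound in IEMM for 18-24 h at 37 °C, then loaded with methyl oxonol membrane potential dye. Chloride transport was triggered in chloride-free buffer with 10 μM forskolin, 100 μM IBMX and 300 nM Compound III, read by fluorescence for 15 min and expressed as % of a triple-combination control.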

[3] = F508del NIH 3T3 cells, read-out: 3T3 EC50
[4] = efficacy compared to lumacaftor in combination with acutely added 300 nM Ivacaftor

Sequence of CFTR-mediated chloride transport in human intestinal epithelial enteroid cells (P13569 with tags, fused parts or gaps DEL508-508): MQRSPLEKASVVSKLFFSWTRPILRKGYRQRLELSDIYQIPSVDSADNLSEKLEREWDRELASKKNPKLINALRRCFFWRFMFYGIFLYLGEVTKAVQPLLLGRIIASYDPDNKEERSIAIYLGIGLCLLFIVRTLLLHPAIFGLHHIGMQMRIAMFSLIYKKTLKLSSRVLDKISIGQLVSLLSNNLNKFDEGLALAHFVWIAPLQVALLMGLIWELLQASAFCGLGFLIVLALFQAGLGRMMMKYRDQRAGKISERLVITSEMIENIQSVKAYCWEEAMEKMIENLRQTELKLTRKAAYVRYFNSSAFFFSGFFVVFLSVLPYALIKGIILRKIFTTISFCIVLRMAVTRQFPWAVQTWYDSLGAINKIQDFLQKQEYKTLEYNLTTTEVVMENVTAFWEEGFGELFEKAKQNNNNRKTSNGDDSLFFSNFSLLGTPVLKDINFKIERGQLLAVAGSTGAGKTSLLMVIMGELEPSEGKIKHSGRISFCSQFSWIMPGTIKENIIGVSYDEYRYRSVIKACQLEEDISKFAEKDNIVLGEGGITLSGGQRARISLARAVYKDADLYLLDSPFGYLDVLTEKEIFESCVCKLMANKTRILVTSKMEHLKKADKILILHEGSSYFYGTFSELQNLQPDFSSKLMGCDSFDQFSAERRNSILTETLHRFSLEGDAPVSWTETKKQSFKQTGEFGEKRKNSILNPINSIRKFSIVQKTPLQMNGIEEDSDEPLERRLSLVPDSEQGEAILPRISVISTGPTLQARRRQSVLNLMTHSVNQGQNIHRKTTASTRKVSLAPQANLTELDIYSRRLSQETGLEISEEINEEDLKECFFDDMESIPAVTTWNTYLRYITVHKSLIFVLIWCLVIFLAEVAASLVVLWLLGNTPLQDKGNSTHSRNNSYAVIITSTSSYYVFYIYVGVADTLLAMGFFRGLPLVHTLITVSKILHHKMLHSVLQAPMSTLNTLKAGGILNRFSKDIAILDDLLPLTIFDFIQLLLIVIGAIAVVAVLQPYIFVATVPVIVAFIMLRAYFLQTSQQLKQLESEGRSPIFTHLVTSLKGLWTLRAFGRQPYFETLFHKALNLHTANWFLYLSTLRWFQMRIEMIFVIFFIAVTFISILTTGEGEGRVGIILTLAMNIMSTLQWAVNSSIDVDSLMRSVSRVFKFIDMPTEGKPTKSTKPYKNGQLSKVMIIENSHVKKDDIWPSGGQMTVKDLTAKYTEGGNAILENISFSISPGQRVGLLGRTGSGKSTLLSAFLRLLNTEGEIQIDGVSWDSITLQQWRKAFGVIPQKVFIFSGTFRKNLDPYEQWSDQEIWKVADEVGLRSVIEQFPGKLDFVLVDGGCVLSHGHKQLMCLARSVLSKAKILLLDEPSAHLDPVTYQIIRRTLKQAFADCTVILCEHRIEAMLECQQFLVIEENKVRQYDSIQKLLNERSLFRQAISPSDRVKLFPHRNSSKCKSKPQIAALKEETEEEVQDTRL
T1 sequence (P13569 with tags, fused parts or gaps DEL508-508): as above

SMILES	EC50 [1, 3] [µM]	Emax [1, 4] [%]	Ent. A Max Activity (%) [2]	EC50 [2] [nM]	further results
Cc1cccc(C)c1-c1cc2nc(n1)NS(=O)(=O)c1cccc(n1)NC(=O)C1CC(CN(C(=O)OC(C)(C)C)C1)O2 (centres unmarked)	–	–	–	–	ring closure, yield after HPLC (from Cc1cccc(C)c1-c1cc(OC2CC(C(=O)Oc3c(F)c(F)c(F)c(F)c3F)CN(C(=O)OC(C)(C)C)C2)nc(NS(=O)(=O)c2cccc(N)n2)n1, amide bond, 14-membered ring, none (thermal, OPfp ester), NMP, 10.1 mM, 140.0 °C, 5.0 h, 5 steps): 1%
Cc1ccccc1-c1cc2nc(n1)NS(=O)(=O)c1cccc(c1)Nc1cccc(c1)O2	–	–	–	–	ring closure, yield after HPLC (other bond, 13-membered ring, CuI/pyrrole-2-carboxylic acid/K3PO4, DMSO, 65.2 mM, 3 steps): 2%
Cc1cccc(C)c1-c1cc2nc(n1)NS(=O)(=O)c1cccc(c1)NC(=O)C1CCCC(C1)O2 (mixture of isomers) [Compound 67, 5-(2,6-Dimethylphenyl)-9,9-dioxo-2-oxa-9λ^6-thia-6,8,15,23-tetraazatetracyclo[15.3.1.13,7.110,14]tricosa-3,5,7(23),10(22),11,13-hexaen-16-one]	< 1	> 60	–	–	ring closure, yield after HPLC (amide bond, 14-membered ring, HATU/DIEA, DMF, 100.0 mM, 3 steps): 20%
Cc1cccc(C)c1-c1cc2nc(n1)NS(=O)(=O)c1cncc(c1)NC(=O)C1CC(CN(C(=O)OC(C)(C)C)C1)O2 (racemic) [Compound 14, tert-Butyl 19-(2,6-dimethylphenyl)-8,15,15-trioxo-2-oxa-15λ^6-thia-5,9,12,16,18,21-hexaazatetracyclo[15.3.1.13,7.110,14]tricosa-1(21),10,12,14(22),17,19-hexaene-5-carboxylate]	–	–	+ (+ is <30%)	< 1000	ring closure, yield after HPLC (from Cc1cccc(C)c1-c1cc(OC2CC(C(=O)Oc3c(F)c(F)c(F)c(F)c3F)CN(C(=O)OC(C)(C)C)C2)nc(NS(=O)(=O)c2cncc(N)c2)n1, amide bond, 14-membered ring, none (thermal, OPfp ester), NMP, 12.1 mM, 140.0 °C, 5.0 h, 5 steps): 1%
Cc1cccc(C)c1-c1cc2nc(n1)NS(=O)(=O)c1cccc(c1)NC(=O)c1cccc(c1)O2 [Compound 53, 5-(2,6-Dimethylphenyl)-9,9-dioxo-2-oxa-9λ^6-thia-6,8,15,23-tetraazatetracyclo[15.3.1.13,7.110,14]tricosa-1(20),3,5,7(23),10(22),11,13,17(21),18-nonaen-16-one]	< 1	> 60	+++ (+++ is >60%)	3000 to 30000	–
Cc1ccccc1-c1cc2nc(n1)NS(=O)(=O)c1cccc(c1)NC(=O)c1cccc(c1)O2 [Compound 54, 5-(o-Tolyl)-9,9-dioxo-2-oxa-9λ^6-thia-6,8,15,23-tetraazatetracyclo[15.3.1.13,7.110,14]tricosa-1(20),3,5,7(23),10(22),11,13,17(21),18-nonaen-16-one]	< 1	> 60	–	–	ring closure, yield after HPLC (from Cc1ccccc1-c1cc(Oc2cccc(C(=O)O)c2)nc(NS(=O)(=O)c2cccc(N)c2)n1, amide bond, 14-membered ring, HATU/DIEA, DMF, 81.2 mM, 0.33 h): 45%
Cc1ccc2cc1Oc1cc(-c3c(C)cccc3C)nc(n1)NS(=O)(=O)c1cccc(c1)NC2=O [Compound 57, 5-(2,6-Dimethylphenyl)-20-methyl-2-oxa-9λ^6-thia-6,8,15,23-tetraazatetracyclo[15.3.1.13,7.110,14]tricosa-1(21),3(23),4,6,10,12,14(22),17,19-nonaene-9,9,16-trione]	< 1	> 60	++ (++ is 30-60%)	< 1000	–
O=C1Nc2cccc(c2)S(=O)(=O)Nc2nc(cc(-c3cccc4ccccc34)n2)Oc2cccc1c2 [Compound 58, 5-(1-Naphthyl)-9,9-dioxo-2-oxa-9λ^6-thia-6,8,15,23-tetraazatetracyclo[15.3.1.13,7.110,14]tricosa-1(20),3,5,7(23),10(22),11,13,17(21),18-nonaen-16-one]	< 1	> 60	++ (++ is 30-60%)	1000 to 3000	–
Cc1ccccc1-c1cc2nc(n1)NS(=O)(=O)c1cccc(c1)NCc1cccc(c1)O2 [Compound 62, 5-(o-Tolyl)-2-oxa-9λ^6-thia-6,8,15,23-tetraazatetracyclo[15.3.1.13,7.110,14]tricosa-1(20),3,5,7(23),10(22),11,13,17(21),18-nonaene 9,9-dioxide]	< 1	–	–	–	ring closure, yield after HPLC (amine bond, 14-membered ring, NaBH(OAc)3/TFA, AcOH, 3 steps): 1%
Cc1ccccc1-c1cc2nc(n1)NS(=O)(=O)c1cccc(c1)NC(=O)c1ccc(cc1)O2 [Compound 63, 5-(o-Tolyl)-9,9-dioxo-2-oxa-9λ^6-thia-6,8,15,23-tetraazatetracyclo[15.2.2.13,7.110,14]tricosa-1(19),3,5,7(23),10(22),11,13,17,20-nonaen-16-one]	–	–	–	–	EC50 ([1]; 3T3 EC50 (μM), F508del NIH 3T3 cells): 1 to 3 µM; ring closure, yield after HPLC (amide bond, 15-membered ring, HATU/DIEA, DMF, 3 steps): 1%
Cc1cccc(C)c1-c1cc2nc(n1)NS(=O)(=O)c1cccc(c1)NC(=O)CCCCO2 [Compound 72, 6-(2,6-Dimethylphenyl)-2,2-dioxo-9-oxa-2λ^6-thia-3,5,15,21-tetrazatricyclo[14.3.1.14,8]henicosa-1(20),4(21),5,7,16,18-hexaen-14-one]	< 1	> 60	–	–	ring closure, yield after HPLC (amide bond, 15-membered ring, HATU/DIEA, DMF, 5 steps): 3%
Cc1cccc(C)c1-c1cc2nc(c1)Oc1cccc(c1)C(=O)Nc1cccc(c1)S(=O)(=O)N2 [Compound 76, 5-(2,6-Dimethylphenyl)-9,9-dioxo-2-oxa-9λ^6-thia-8,15,23-triazatetracyclo[15.3.1.13,7.110,14]tricosa-1(21),3(23),4,6,10,12,14(22),17,19-nonaen-16-one]	–	< 30	+ (+ is <30%)	–	–
CC(C)c1ccccc1-c1cc2nc(n1)NS(=O)(=O)c1cccc(c1)NC(=O)c1cccc(c1)O2 [Compound 81]	< 1	> 60	++ (++ is 30-60%)	3000 to 30000	–
Cc1cccc(C)c1-c1cc2nc(n1)NS(=O)(=O)c1cccc(c1)NC(=O)CCc1cccc(c1)O2 [Compound 108]	< 1	> 60	+++ (+++ is >60%)	3000 to 30000	–
Cc1cccc(C)c1-c1cc2nc(n1)NS(=O)(=O)c1cccc(c1)NC(=O)Cc1cccc(c1)O2 [Compound 109]	1 to 3	> 60	++ (++ is 30-60%)	3000 to 30000	–
Cc1cc2cc(c1)C(=O)Nc1cccc(c1)S(=O)(=O)Nc1nc(cc(-c3c(C)cccc3C)n1)O2 [Compound 110]	< 1	> 60	++ (++ is 30-60%)	1000 to 3000	–
Cc1ccc2cc1C(=O)Nc1cccc(c1)S(=O)(=O)Nc1nc(cc(-c3c(C)cccc3C)n1)O2 [Compound 111]	< 1	> 60	++ (++ is 30-60%)	3000 to 30000	–
Cc1cccc(C)c1-c1cc2nc(n1)NS(=O)(=O)c1cccc(c1)NC(=O)c1ccc(Cl)c(c1)O2 [Compound 117]	< 1	> 60	+++ (+++ is >60%)	1000 to 3000	–
Cc1cccc(C)c1-c1cc2nc(n1)NS(=O)(=O)c1cccc(c1)NC(=O)c1cc(Cl)cc(c1)O2 [Compound 118]	< 1	> 60	+++ (+++ is >60%)	1000 to 3000	–
Cc1cccc(C)c1-c1cc2nc(n1)NS(=O)(=O)c1cccc(c1)NC(=O)C1CC(CN(C(=O)OC(C)(C)C)C1)O2 (centres unmarked) [Compound 123]	< 1	> 60	++ (++ is 30-60%)	< 1000	–
Cc1cccc(C)c1-c1cc2nc(n1)NS(=O)(=O)c1cccc(c1)NC(=O)C1CC(CN(C(=O)OC(C)(C)C)C1)O2 (centres unmarked) [Compound 124]	1 to 3	–	++ (++ is 30-60%)	3000 to 30000	3T3 Max Activity (%) ([1]; F508del NIH 3T3 cells, efficacy compared to lumacaftor in combination with acutely added 300 nM Ivacaftor): +++ (+++ is >60%)

Reference: patent US20230416275A1, “MODULATORS OF CYSTIC FIBROSIS TRANSMEMBRANE CONDUCTANCE REGULATOR” (VERTEX PHARMACEUTICALS INCORPORATED, priority 2020, published 2023)
